Experimental data taken from article PMC2876253, “MHC I Stabilizing Potential of Computer-Designed Octapeptides” (Journal of Biomedicine and Biotechnology, 2010).
Where no end group is shown, it is not given here.

Target: T1, H-2K^b (Mus musculus, UniProt P01901)
T1 construct: For accumulation of peptide-free MHC I proteins at the cell surface, the cells were cultured for 16 hours at 26°C; endogenous in cells; host or cells: RMA-S cells (TAP-deficient mouse T lymphoma)
T1 sequence (P01901 22-369): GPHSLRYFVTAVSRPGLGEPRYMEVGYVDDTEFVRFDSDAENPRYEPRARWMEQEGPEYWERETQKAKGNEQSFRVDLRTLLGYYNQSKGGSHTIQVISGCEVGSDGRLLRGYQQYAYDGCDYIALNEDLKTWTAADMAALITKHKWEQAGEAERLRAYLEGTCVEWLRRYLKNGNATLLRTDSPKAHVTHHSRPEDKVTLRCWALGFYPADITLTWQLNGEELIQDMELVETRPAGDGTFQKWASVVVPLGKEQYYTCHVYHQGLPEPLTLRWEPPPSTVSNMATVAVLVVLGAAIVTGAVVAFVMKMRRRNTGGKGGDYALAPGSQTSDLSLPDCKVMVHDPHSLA
T1 sequence (P01887 21-119 partner): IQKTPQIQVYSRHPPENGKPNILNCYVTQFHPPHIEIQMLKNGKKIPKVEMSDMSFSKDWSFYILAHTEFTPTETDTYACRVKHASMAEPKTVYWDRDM
Test: MHC I stabilization assay with TAP-deficient RMA-S cells
Format: cell-based
Conditions: peptide concentration for 50% of maximal MHC I stabilization (half-maximal MFI), 100 to 5.6 × 10^−4 μg/mL, 1 h room temperature then 1 h 37°C, flow cytometry with antibody B8.24.3, standard deviation in brackets, N = 3, n.d.: not detectable, SD, read-out: Experimental EC50
Method: The stabilization assay was performed as described by Brock et al. using TAP-deficient RMA-S cells (mutagenized Rauscher virus-induced T lymphoma cells of mouse origin). The cells were cultured in DMEM (Gibco-BRL, Karlsruhe, Germany) with 10% FCS (Sigma-Aldrich, Steinheim, Germany) at 37°C with 8% CO2. For accumulation of peptide-free MHC I proteins at the cell surface, the cells were cultured for 16 hours at 26°C. […] The stabilized MHC I proteins were visualized and quantified by flow cytometry using the H-2K^b specific monoclonal antibody B8.24.3 [23] purified in the laboratory from hybridoma culture supernatant by protein G affinity chromatography (Pierce, Darmstadt, Germany) and an R-Phycoerythrin-conjugated anti-mouse antibody (Dianova GmbH, Hamburg, Germany) as secondary reagent. The stabilizing effect of the peptides was determined as mean fluorescence intensity (MFI). The EC50 value is the peptide concentration that is required for half-maximal stabilization of the MHC I molecules at the cell surfaces (half-maximal MFI). All peptides were custom-synthesized by EMC microcollections GmbH (Tübingen, Germany).

FHWDYRGL [Peptide 3] and FRYPYKTL [Peptide 1] are within 1.5-fold of each other in EC50: 25 µM for the first, 24 µM for the second.

First: WDFKFDSV [Peptide 7]
Second: WKFIFDPV [Peptide 8]
The EC50 of the first is 22-fold higher: 9 µM for the first, 0.4 µM for the second.

Compared with WRFIYFNL [Peptide 6], WRFKYDNL [Peptide 4] is 1.9-fold higher in EC50: 3.6 µM for the first, 7 µM for the second.

WRFVYWRL [Peptide 5] gave an EC50 of 8 µM.

Same assay, conditions: peptide concentration for 50% of maximal MHC I stabilization (half-maximal MFI), 100 to 5.6 × 10^−4 μg/mL, 1 h room temperature then 1 h 37°C, flow cytometry with antibody B8.24.3, standard deviation in brackets, N = 3, n.d.: not detectable, read-out: Experimental EC50

First: FHHAHRTV [sequence 9]
Second: FRYIYHTL [Seq. 2]
The EC50 of the first is 2.2-fold lower: 9 µM for the first, 20 µM for the second.

Target: T1, H-2K^b
Test: not given
Set-up: method as in PMID 1606619
Conditions: known nonstabilizing octapeptide; cited from earlier work

For LSPFPFDL, the “H-2K^b stabilizing effect in words” value is listed as “nonstabilizing”.
